Reference: the NIST ThermoML archive (doi:10.1021/je2008582)

Conditions: Liquid, Vibrating tube method

CCCCCCCC/C=C\CCCCCCCC(=O)OC [methyl cis-9-octadecenoate]
Conditions | mass density [kg/m3]
270 K, 490 kPa | 892.3
270 K, 990 kPa | 892.6
270 K, 1990 kPa | 893.2
270 K, 2990 kPa | 893.7
270 K, 3990 kPa | 894.3
270 K, 4990 kPa | 894.8
270 K, 9990 kPa | 897.4
270 K, 19990 kPa | 902.4
270 K, 29990 kPa | 907.1
270 K, 39990 kPa | 911.7
270 K, 49830 kPa | 915.9
290 K, 490 kPa | 877.7
290 K, 1000 kPa | 878
290 K, 2000 kPa | 878.6
290 K, 3000 kPa | 879.2
290 K, 3990 kPa | 879.8
290 K, 4990 kPa | 880.4
290 K, 10000 kPa | 883.3
290 K, 19990 kPa | 888.7
290 K, 29990 kPa | 893.8
290 K, 39990 kPa | 898.7
290 K, 49960 kPa | 903.4
310 K, 490 kPa | 863.3
310 K, 990 kPa | 863.6
310 K, 2000 kPa | 864.3
310 K, 3000 kPa | 865
310 K, 4000 kPa | 865.6
310 K, 5000 kPa | 866.2
310 K, 9990 kPa | 869.3
310 K, 20000 kPa | 875.3
310 K, 29990 kPa | 880.8
310 K, 39990 kPa | 886.1
310 K, 49990 kPa | 891.1
330 K, 500 kPa | 849
330 K, 1000 kPa | 849.3
330 K, 2000 kPa | 850.1
330 K, 3000 kPa | 850.8
330 K, 3990 kPa | 851.5
330 K, 4990 kPa | 852.2
330 K, 10000 kPa | 855.6
330 K, 19990 kPa | 862
330 K, 29990 kPa | 868
330 K, 39990 kPa | 873.6
330 K, 49990 kPa | 878.9
350 K, 500 kPa | 834.6
350 K, 990 kPa | 835
350 K, 2000 kPa | 835.8
350 K, 2990 kPa | 836.6
350 K, 3990 kPa | 837.3
350 K, 5000 kPa | 838.1
350 K, 9990 kPa | 841.8
350 K, 20000 kPa | 848.8
350 K, 30000 kPa | 855.3
350 K, 40000 kPa | 861.3
350 K, 49980 kPa | 867
370 K, 500 kPa | 820.1
370 K, 990 kPa | 820.6
370 K, 1990 kPa | 821.4
370 K, 2990 kPa | 822.3
370 K, 3990 kPa | 823.2
370 K, 5010 kPa | 824
370 K, 10000 kPa | 828.1
370 K, 20010 kPa | 835.7
370 K, 29990 kPa | 842.6
370 K, 39990 kPa | 849.1
370 K, 49970 kPa | 855.1
390 K, 490 kPa | 805.7
390 K, 990 kPa | 806.2
390 K, 2000 kPa | 807.1
390 K, 3000 kPa | 808.1
390 K, 3990 kPa | 809
390 K, 5000 kPa | 810
390 K, 10000 kPa | 814.5
390 K, 19990 kPa | 822.7
390 K, 29980 kPa | 830.2
390 K, 40000 kPa | 837.2
390 K, 49990 kPa | 843.6
410 K, 490 kPa | 791
410 K, 990 kPa | 791.6
410 K, 2000 kPa | 792.7
410 K, 3000 kPa | 793.7
410 K, 3990 kPa | 794.8
410 K, 5000 kPa | 795.8
410 K, 10000 kPa | 800.8
410 K, 20000 kPa | 809.8
410 K, 30000 kPa | 817.9
410 K, 39990 kPa | 825.3
410 K, 50000 kPa | 832.2
430 K, 500 kPa | 776.2
430 K, 1000 kPa | 776.8
430 K, 1990 kPa | 778
430 K, 3000 kPa | 779.2
430 K, 3990 kPa | 780.3
430 K, 4990 kPa | 781.5
430 K, 9990 kPa | 786.9
430 K, 19990 kPa | 796.7
430 K, 29990 kPa | 805.5
430 K, 39990 kPa | 813.5
430 K, 49990 kPa | 820.8
450 K, 490 kPa | 761.2
450 K, 1000 kPa | 761.9
450 K, 1990 kPa | 763.2
450 K, 2990 kPa | 764.5
450 K, 3990 kPa | 765.8
450 K, 5000 kPa | 767.1
450 K, 10000 kPa | 773.1
450 K, 20000 kPa | 783.9
450 K, 29990 kPa | 793.3
450 K, 39990 kPa | 801.9
450 K, 50010 kPa | 809.7
470 K, 490 kPa | 746.3
470 K, 990 kPa | 747
470 K, 2000 kPa | 748.6
470 K, 2990 kPa | 750
470 K, 3990 kPa | 751.5
470 K, 5010 kPa | 752.9
470 K, 10000 kPa | 759.5
470 K, 19990 kPa | 771.2
470 K, 29990 kPa | 781.5
470 K, 39990 kPa | 790.6
470 K, 49970 kPa | 798.8
